Reference: patent US7820655B2, “Ethanol or 1,2-ethanediol cyclohexyl antibiotic derivatives” (Actelion Pharmaceuticals Ltd., priority 2006, dated 2010)
In brackets after ≈: the same amount, converted by molar mass.

Tests used:
Format in all cases: cell-based
S. Pneumoniae 49619 = test: MIC by broth microdilution (NCCLS), S. Pneumoniae 49619; conditions: Streptococcus pneumoniae, cation-adjusted Mueller-Hinton Broth, pH 7.2-7.3
Procedure: (§1) These assays have been performed following the description given in “Methods for dilution Antimicrobial Susceptibility Tests for Bacteria that Grow Aerobically, 4th ed.; Approved standard: NCCLS Document M7-A4; National Committee for Clinical Laboratory Standards Villanova, Pa., USA, 1997”. Minimal inhibitory concentrations (MICs; mg/l) were determined in cation-adjusted Mueller-Hinton Broth (BBL) by a microdilution method following NCCLS guidelines (National Committee for Clinical Laboratory Standards. Methods for Dilution Antimicrobial Susceptibility). The pH of the test medium was 7.2-7.3.

M. catarrhalis A894 = test: MIC by broth microdilution (NCCLS), M. catarrhalis A894; conditions: Moraxella catarrhalis, cation-adjusted Mueller-Hinton Broth, pH 7.2-7.3
Procedure: as §1

S. aureus A798 = test: MIC by broth microdilution (NCCLS), S. aureus A798; conditions: Staphylococcus aureus, cation-adjusted Mueller-Hinton Broth, pH 7.2-7.3
Procedure: as §1

SMILES	MIC (S. Pneumoniae 49619) [µg/mL]	MIC (M. catarrhalis A894) [µg/mL]	MIC (S. aureus A798) [µg/mL]
COc1cnc2cccc([C@@H](O)[C@H](O)[C@H]3CC[C@H](NC/C=C/c4cc(F)ccc4F)CC3)c2n1 [Example 10, (1R,2R)-1-{trans-4-[(E)-3-(2,5-difluoro-phenyl)-allylamino]-cyclohexyl}-2-(3-methoxy-quinoxalin-5-yl)-ethane-1,2-diol]	0.063 (≈ 0.134 µM)	≤ 0.031	≤ 0.031
COc1ccc2nccc([C@@H](O)[C@H](O)[C@H]3CC[C@H](NCc4ccc5c(n4)NC(=O)CS5)CC3)c2n1 [Example 3, 6-(trans-{4-[(1R,2R)-1,2-dihydroxy-2-(6-methoxy-[1,5]naphthyridin-4-yl)-ethyl]-cyclohexylamino}-methyl)-4H-pyrido[3,2-b][1,4]thiazin-3-one]	0.063 (≈ 0.127 µM)	≤ 0.031	≤ 0.031
COc1ccc2nccc(C[C@@H](O)[C@H]3CC[C@H](NCc4ccc5c(n4)NC(=O)CO5)CC3)c2n1 [Example 12, 6-(trans{4-[1-(1R)-hydroxy-2-(6-methoxy-[1,5]naphthyridin-4-yl)-ethyl]-cyclohexylamino}-methyl)-4H-pyrido[3,2-b][1,4]oxazin-3-one]	0.125 (≈ 0.27 µM)	0.031 (≈ 0.0669 µM)	0.063 (≈ 0.136 µM)
